The subject of series [1] is H295R cell line. To be noted: cited from earlier work.
For series [2], the system named is LRH-1. To be noted: cited from earlier work.
Series [3] concerns SW-13 cell line. To be noted: cited from earlier work.
The conditions of series [4]: room temperature, 2 weeks.
A short description of series [5]: Solubility. The format is physicochemical.
Series [6] addresses hLRH-1 LBD alone (no lipid added) (Homo sapiens, UniProt O00482). The series can be described thus: Native gel. The format is binding. To be noted: doses up to 100 µM.
Series [7] deals with SF-1. To be noted: read-out: IC50 inverse agonist of SF-1; cited from earlier work.
For series [8], the target named is mouse SF-1 (Mus musculus, UniProt P33242). The series can be described thus: RT-qPCR of endogenous target genes in HEK293 cells stably expressing SF-1. It counts as cell-based. To be noted: 10 µM, 24 h, relative to DMSO. A general note: In qPCR the cycle at which signal appears reflects the starting amount.
In series [9] the target is hLRH-1 (Homo sapiens, UniProt O00482). Description: RT-qPCR of endogenous target genes in HEK293 cells stably expressing hLRH-1. The format is cell-based. To be noted: 10 µM, 24 h.
The target of series [10] is human LRH-1 ligand binding domain, labeled with biotin (human, UniProt O00482 300-541, biotin (site not stated)). The series can be described thus: FRET or BRET. For orientation: BRET reads energy transfer from a luciferase to a nearby fluorophore.
human LRH-1 ligand binding domain, labeled with biotin, sequence (O00482 300-541): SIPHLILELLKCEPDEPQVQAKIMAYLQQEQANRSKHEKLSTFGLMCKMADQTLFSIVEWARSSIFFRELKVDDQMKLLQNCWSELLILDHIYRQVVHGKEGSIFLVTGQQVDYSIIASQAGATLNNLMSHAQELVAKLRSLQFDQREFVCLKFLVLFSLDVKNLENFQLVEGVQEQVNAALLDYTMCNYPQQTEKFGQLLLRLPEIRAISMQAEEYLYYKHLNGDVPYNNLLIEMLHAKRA

mouse SF-1, sequence (P33242 whole entry): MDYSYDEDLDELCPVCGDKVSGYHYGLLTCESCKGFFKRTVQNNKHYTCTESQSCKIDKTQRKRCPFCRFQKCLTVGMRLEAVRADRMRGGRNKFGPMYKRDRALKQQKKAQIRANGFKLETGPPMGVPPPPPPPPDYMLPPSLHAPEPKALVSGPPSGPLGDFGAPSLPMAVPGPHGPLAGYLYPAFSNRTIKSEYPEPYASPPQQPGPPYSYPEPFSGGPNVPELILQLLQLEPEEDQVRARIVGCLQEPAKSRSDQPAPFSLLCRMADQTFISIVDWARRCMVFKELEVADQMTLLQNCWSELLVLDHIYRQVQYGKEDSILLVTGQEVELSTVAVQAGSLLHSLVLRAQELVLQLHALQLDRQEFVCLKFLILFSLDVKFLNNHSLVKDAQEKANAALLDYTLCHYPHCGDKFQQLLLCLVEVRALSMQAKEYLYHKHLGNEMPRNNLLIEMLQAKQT
hLRH-1 LBD alone (no lipid added), sequence (O00482 300-539 limits assumed): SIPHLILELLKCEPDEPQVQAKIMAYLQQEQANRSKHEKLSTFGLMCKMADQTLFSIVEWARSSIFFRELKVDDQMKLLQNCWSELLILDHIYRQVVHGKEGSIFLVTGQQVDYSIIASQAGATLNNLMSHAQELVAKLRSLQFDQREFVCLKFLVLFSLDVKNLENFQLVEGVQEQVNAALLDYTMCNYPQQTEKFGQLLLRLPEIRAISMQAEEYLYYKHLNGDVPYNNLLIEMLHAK
hLRH-1, sequence (O00482 whole entry, the tested form may be a part): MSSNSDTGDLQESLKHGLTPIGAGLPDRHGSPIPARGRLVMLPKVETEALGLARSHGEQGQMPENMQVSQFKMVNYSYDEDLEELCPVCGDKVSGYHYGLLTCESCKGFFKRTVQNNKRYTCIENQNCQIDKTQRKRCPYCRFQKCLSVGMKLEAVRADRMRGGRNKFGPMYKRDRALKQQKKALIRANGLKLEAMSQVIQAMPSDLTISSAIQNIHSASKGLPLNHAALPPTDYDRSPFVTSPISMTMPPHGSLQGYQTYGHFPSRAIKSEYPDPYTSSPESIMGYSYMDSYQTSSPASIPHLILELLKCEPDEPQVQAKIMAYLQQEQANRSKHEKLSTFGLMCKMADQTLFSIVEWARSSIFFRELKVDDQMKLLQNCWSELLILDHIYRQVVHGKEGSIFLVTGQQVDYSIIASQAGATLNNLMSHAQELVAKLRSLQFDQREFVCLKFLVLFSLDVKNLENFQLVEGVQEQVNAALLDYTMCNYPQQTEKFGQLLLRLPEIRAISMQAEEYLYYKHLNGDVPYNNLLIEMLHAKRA

Regarding `CCCCCCCOc1ccc(O)cc1` [Compound 8, p-heptyloxyphenol], the “proliferation of H295R” value in series [1] was “inhibit proliferation”. In addition, in series [2], the “activity against LRH-1” value is reported as “no activity”. In series [3], the “proliferation of SW-13 (SF-1 negative)” value is given as “had the same effect”.

With `C=C(c1ccccc1)[C@@]12CCC[C@@H]1CC(CCCCCC)=C2c1ccccc1` (racemic) [Compound 18a, rac-(1R,5R)-3-Hexyl-2-phenyl-1-(1-phenylvinyl)-bicyclo[3.3.0]oc-t-2-ene], the “stability in CDCl3 in the presence of daylight” value in series [4] is on record as “stable”.

Regarding `C=C(CCCC)[C@@]12CCC[C@@H]1CC(CCCCCC)=C2c1ccccc1` (racemic) [Compound 18j, rac-(1R,5R)-1-(Hex-1-en-2-yl)-3-hexyl-2-phenyl-bicyclo[3.3.0]oct-2-ene], the “solubility, in words” value in series [5] was “very poor solubility in aqueous media”. Further, the “shift in hLRH-1 LBD native PAGE migration” value in [6] is recorded as “does not appear competent to shift hLRH-1 LBD migration”.

In general, IC50 refers to the concentration at which inhibition is half-maximal. For `CCOC(=O)C(C)Oc1cccc2c(=O)n(CC(=O)Nc3ccc(OC)cc3)ccc12` (centres unmarked) [Compound 9], in [1] (10 µM), the “doxycycline (DOX) induced proliferation of H295R” value is recorded as “modestly suppressed”. In [7], the IC50 is 200 nM. In addition, the “effect on SW-13 (SF-1 negative)” value in [3] (10 µM) is “little effect”.

As for `C=C(c1ccccc1)[C@@]12CC[C@@H](O)[C@@H]1CC(CCCCCC)=C2c1ccccc1` (racemic) [Compound 24-exo, rac-(1R,5R,6R)-3-Hexyl-6-hydroxy-2-phenyl-1-(phenylvinyl)-bicyclo[3.3.0]oct-2-ene], the “SF-1-mediated transcription of endogenous SHP, StAR, G0S2 and MeOX1 target genes” value in series [8] was “significantly activate”. Moreover, the “solubility, in words” value in series [5] is recorded as “reasonable solubility in polar solvents”.

On to `C=C(c1ccccc1)[C@@]12CN(C)C[C@@H]1CC(CCCCCC)=C2c1ccccc1` (racemic) [Compound 20a], for which, in series [9], the “LRH-1 transcription of the SHP and MeOx1 genes” value is reported as “failed to activate”; the “LRH-1 transcription of the StAR and G0S2 genes” value was “activated”. Also, the “SF-1-mediated transcription of endogenous SHP, StAR, G0S2 and MeOX1 target genes” value in series [8] is on record as “significantly activate”. The “solubility, in words” value in series [5] is recorded as “improved solubility”.

As for `C=C(c1ccccc1)[C@@]12CCC[C@@H]1CC(CCCCCC)=C2CCCO` (racemic) [Compound 18s, rac-(1R,5R)-3-Hexyl-1-(phenylvinyl)-2-(propan-3-ol)-bicyclo[3.-3.0]oct-2-ene], in series [6], the “shift in hLRH-1 LBD native PAGE migration” value is given as “can consistently shift hLRH-1 LBD migration in this native gel assay, albeit with reduced potency as compared to 24-exo”.

B1: biotin-labeled peptide derived from TIF-2 amino acids 737-757 (peptide)
peptide: QEPVSPKKKENALLRYLLDKDDTKD
HELM: PEPTIDE1{[O=C1N[C@H]2[C@H](CS[C@H]2CCCCC(=O)[*:2])N1].Q.E.P.V.S.P.K.K.K.E.N.A.L.L.R.Y.L.L.D.K.D.D.T.K.D.[am]}$$$$V2.0
SMILES: CC(C)C[C@H](NC(=O)[C@H](C)NC(=O)[C@H](CC(N)=O)NC(=O)[C@H](CCC(=O)O)NC(=O)[C@H](CCCCN)NC(=O)[C@H](CCCCN)NC(=O)[C@H](CCCCN)NC(=O)[C@@H]1CCCN1C(=O)[C@H](CO)NC(=O)[C@@H](NC(=O)[C@@H]1CCCN1C(=O)[C@H](CCC(=O)O)NC(=O)[C@H](CCC(N)=O)NC(=O)CCCC[C@@H]1SC[C@@H]2NC(=O)N[C@@H]21)C(C)C)C(=O)N[C@@H](CC(C)C)C(=O)N[C@@H](CCCNC(=N)N)C(=O)N[C@@H](Cc1ccc(O)cc1)C(=O)N[C@@H](CC(C)C)C(=O)N[C@@H](CC(C)C)C(=O)N[C@@H](CC(=O)O)C(=O)N[C@@H](CCCCN)C(=O)N[C@@H](CC(=O)O)C(=O)N[C@@H](CC(=O)O)C(=O)N[C@H](C(=O)N[C@@H](CCCCN)C(=O)N[C@@H](CC(=O)O)C(N)=O)[C@@H](C)O
For the molecule B1, the binding result in [10] is “binds”.

Values taken from paper PMC4151520 (Journal of medicinal chemistry, 2011).
